Measurements from US7947719B2, “Biologically active compounds obtainable from Sorangium cellulosum” (Hemholtz-Zentrum fur Infektionsforschung GmbH, priority 2005, dated 2011).
In brackets after ≈: the same amount, converted by molar mass.

Assays:
Assay type in all cases: cell-based
[1] = system: Botrytis cinerea; experiment: Minimal inhibitory concentration against micro-organisms
Description: (§1) As an example for compounds according to the invention, Disorazole Z has been analyzed for biological activity following the methods as disclosed in Irschik et al. (The Sorangicins, novel and powerful inhibitors of eubacterial RNA polymerase isolated from myxobacteria, J. Antibiotics 40: 7-13 (1987)). The following minimal inhibitory concentrations against organisms were found: […]

[2] = system: Escherichia coli (DMSZ 5347); experiment: as above
Description: as §1

[3] = system: Mucor hiemalis; experiment: as above
Description: as §1

[4] = system: Pythium debaryanum; experiment: as above; settings: Globisporangium debaryanum
Description: as §1

[5] = system: Rhodotorula glutinis; experiment: as above
Description: as §1

[6] = system: Saccharomyces cerevisiae; experiment: as above
Description: as §1

[7] = system: Staphylococcus aureus; experiment: as above
Description: as §1

[8] = system: mouse fibroblast cell line L929 (ATCC CCL 1); experiment: Toxicity against mouse fibroblast cell line L929; settings: L929 (ATCC CCL 1) mouse fibroblasts; read-out: inhibitory concentration IC50 (toxicity)
Procedure: The toxicity tested against the mouse fibroblast cell line L929 (ATCC CCL 1) according to Sasse et al. (J. Antibiotics 56:827-831 (2003)), an inhibitory concentration IC50 of 30 pg/mL was determined.

C/C=C/C(O)C(C)(C(=O)OC)C1C\C=C/C=C/C=C/c2nc(co2)C(=O)OC(C(C)(C(=O)OC)C(O)/C=C/C)C\C=C/C=C/C=C/c2nc(co2)C(=O)O1 (centres unmarked) [Disorazole Z]
MIC [1]: 6 µg/mL (≈ 8.03 µM) | MIC [2]: > 25 µg/mL | MIC [3]: > 6 µg/mL | MIC [4]: 3 µg/mL (≈ 4.02 µM) | MIC [5]: 3 µg/mL (≈ 4.02 µM) | MIC [6]: > 6 µg/mL | MIC [7]: > 25 µg/mL | IC50 [8]: 0.03 ng/mL (≈ 4.02e-05 µM)
